Literature values as cited in patent US20010046961A1, “Method for the treatment of solid tumors by albumin microparticles incorporating paclitaxel” (ACS DOBFAR S.p.A., priority 2000, published 2001).

System: head and neck cancer
Details: traditional treatment with Paclitaxel, for example head and neck cancer

CC(=O)O[C@H]1C(=O)[C@@]2(C)[C@H]([C@H](OC(=O)c3ccccc3)[C@]3(O)C[C@H](OC(=O)[C@H](O)[C@@H](NC(=O)c4ccccc4)c4ccccc4)C(C)=C1C3(C)C)[C@]1(OC(C)=O)CO[C@@H]1C[C@@H]2O [Paclitaxel]
treatment response percentage: 40%
